Data: the supplement of paper PMC10307832

What was measured:
Experiment in all cases: relative viability (nuclei count vs DMSO), 5 days (fraction); higher = more cells survive
[1] = compound: CC1(C)CCC(CN2CCN(c3ccc(C(=O)NS(=O)(=O)c4ccc(NCC5CCOCC5)c([N+](=O)[O-])c4)c(Oc4cnc5[nH]ccc5c4)c3)CC2)=C(c2ccc(Cl)cc2)C1 [Venetoclax] + Cc1nc(NC(=O)N2CCC[C@H]2C(N)=O)sc1-c1ccnc(C(C)(C)C(F)(F)F)c1 [Alpelisib] (partner 2 µM)
In short: (§1)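 Relative viability is defined as nuclei in treated wells over nuclei in vehicle wells. Duplicate plates were run and medians reported. Lung cancer cell lines in 1536-well plates were dosed by pin tool one day after seeding, with one drug or with a fixed anchor-drug dose plus five library-drug doses (not always all listed) in √10 steps, and nuclei were counted after 5 days.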

[2] = compound: CC1(C)CCC(CN2CCN(c3ccc(C(=O)NS(=O)(=O)c4ccc(NCC5CCOCC5)c([N+](=O)[O-])c4)c(Oc4cnc5[nH]ccc5c4)c3)CC2)=C(c2ccc(Cl)cc2)C1 [Venetoclax] + Cc1nc(Nc2ncc(C(=O)Nc3c(C)cccc3Cl)s2)cc(N2CCN(CCO)CC2)n1 [Dasatinib] (partner 0.075 µM)
In short: as §1

[3] = compound: Cn1cnc2c(F)c(Nc3ccc(Br)cc3Cl)c(C(=O)NOCCO)cc21 [Selumetinib] + COc1cc2c(Oc3ccc(NC(=O)C4(C(=O)Nc5ccc(F)cc5)CC4)cc3F)ccnc2cc1OCCCN1CCOCC1 [Foretinib] (partner 0.25 µM)
In short: as §1

[4] = compound: Cn1cnc2c(F)c(Nc3ccc(Br)cc3Cl)c(C(=O)NOCCO)cc21 [Selumetinib] + C[C@@H](Oc1cc(-c2cnn(C3CCNCC3)c2)cnc1N)c1c(Cl)ccc(F)c1Cl [Crizotinib] (partner 1 µM)
In short: as §1

Cell Line | relative viability ([1]; first compound 0.01 µM) | relative viability ([1]; first compound 0.03162 µM) | relative viability ([1]; first compound 0.1 µM) | relative viability ([1]; first compound 0.3162 µM) | relative viability ([1]; first compound 1 µM) | relative viability ([2]; first compound 0.01 µM) | relative viability ([2]; first compound 0.03162 µM) | relative viability ([2]; first compound 0.1 µM) | relative viability ([2]; first compound 0.3162 µM) | relative viability ([2]; first compound 1 µM) | relative viability ([3]; first compound 0.02 µM) | relative viability ([3]; first compound 0.06325 µM) | relative viability ([3]; first compound 0.2 µM) | relative viability ([3]; first compound 0.6325 µM) | relative viability ([4]; first compound 0.02 µM) | relative viability ([4]; first compound 0.06325 µM) | relative viability ([4]; first compound 0.2 µM) | relative viability ([4]; first compound 0.6325 µM)
NCI-H727 | 0.553 | 0.608 | 0.525 | 0.558 | 0.571 | 0.421 | 0.357 | 0.35 | 0.415 | 0.447 | 0.468 | 0.434 | 0.329 | 0.352 | 0.558 | 0.348 | 0.316 | 0.255
NCI-H838 | 1.11 | 0.953 | 1.04 | 1.04 | 0.955 | 0.367 | 0.288 | 0.303 | 0.312 | 0.279 | 0.907 | 0.915 | 0.859 | 0.796 | 0.783 | 0.689 | 0.634 | 0.601
NCI-H1355 | 0.842 | 0.782 | 0.784 | 0.785 | 0.805 | 0.697 | 0.731 | 0.623 | 0.723 | 0.602 | 0.954 | 0.847 | 0.539 | 0.625 | 1.06 | 1.1 | 0.796 | 0.681
NCI-H1437 | 0.985 | 0.989 | 1.05 | 0.938 | 0.926 | 0.508 | 0.494 | 0.274 | 0.44 | 0.478 | 1.33 | 1.3 | 1.17 | 0.708 | 0.922 | 0.896 | 0.829 | 0.561
NCI-H1563 | 1.03 | 0.938 | 0.852 | 0.987 | 1.03 | 0.531 | 0.516 | 0.445 | 0.442 | 0.461 | 0.879 | 0.955 | 0.903 | 0.824 | 0.858 | 0.825 | 0.865 | 0.781
NCI-H1651 | 0.973 | 0.949 | 0.959 | 0.987 | 0.905 | 0.474 | 0.43 | 0.383 | 0.409 | 0.43 | 0.758 | 0.731 | 0.67 | 0.673 | 0.973 | 0.8 | 0.821 | 0.766
NCI-H1666 | 0.8 | 0.89 | 1.13 | 0.971 | 1.04 | 0.816 | 0.821 | 0.838 | 0.708 | 0.766 | 0.827 | 0.839 | 0.791 | 0.734 | 0.956 | 0.791 | 0.829 | 0.614
NCI-H1734 | 0.682 | 0.732 | 0.624 | 0.628 | 0.689 | 0.471 | 0.415 | 0.417 | 0.446 | 0.451 | 0.88 | 0.843 | 0.672 | 0.611 | 0.775 | 0.52 | 0.591 | 0.574
NCI-H1755 | 0.968 | 0.912 | 0.842 | 0.962 | 0.893 | 0.398 | 0.404 | 0.43 | 0.402 | 0.378 | 0.874 | 0.807 | 0.824 | 0.847 | 0.895 | 0.765 | 0.802 | 0.842
NCI-H1915 | 1.03 | 1.05 | 1.02 | 1.01 | 1.06 | 0.303 | 0.301 | 0.311 | 0.297 | 0.32 | 1.16 | 1.03 | 0.812 | 0.529 | 0.876 | 0.849 | 0.677 | 0.467
NCI-H1944 | 1.12 | 0.836 | 0.779 | 0.864 | 0.845 | 0.283 | 0.235 | 0.201 | 0.222 | 0.227 | 0.898 | 0.796 | 0.69 | 0.536 | 1.03 | 0.887 | 0.497 | 0.71
NCI-H1975 | 0.673 | 0.703 | 0.609 | 0.628 | 0.543 | 0.355 | 0.4 | 0.372 | 0.318 | 0.322 | 0.992 | 1.09 | 1.03 | 0.724 | 1.1 | 0.898 | 0.933 | 0.766
NCI-H1993 | 0.676 | 0.696 | 0.665 | 0.617 | 0.68 | 0.641 | 0.546 | 0.493 | 0.541 | 0.537 | 0.663 | 0.744 | 0.745 | 0.671 | 0.781 | 0.766 | 0.749 | 0.748
NCI-H2009 | 1.1 | 1.15 | 1.16 | 1.11 | 1.07 | 0.37 | 0.315 | 0.283 | 0.302 | 0.266 | 0.965 | 0.87 | 0.511 | 0.337 | 0.765 | 0.623 | 0.53 | 0.336
